{"source": "patent US4350691A", "about": "“Certain azabicyclocarboxamides and compositions containing same” (Beecham Group Limited, priority 1979, dated 1982)", "format_in_all_cases": "in vivo", "key": {"gastric motility": {"test_system": "gastric motility", "assay": "Gastric Motility Testing in the Rat (reversal of the inhibition effect of 6,7-ADTN)", "conditions": "conscious chronic gastric fistula rat; for reversal of the reduction of basal gastric motor activity by 6,7-ADTN: 10 minutes after 6,7-ADTN 1 mg/kg s.c.", "protocol": "The compounds were tested for ability to reverse the inhibition effect of 6,7-ADTN on gastric motility recorded by an open tipped catheter in the conscious chronic gastric fistula rat. […] For subcutaneous testing the compounds were dissolved in water by the addition of tartaric acid (1/2 mole per mole of compound)."}, "dopamine receptor": {"test_system": "dopamine receptor", "assay": "Inhibition of Apomorphine Induced Climbing in the Mouse", "conditions": "for Activity % Inhibition: apomorphine induced climbing, apomorphine 1 mg/kg s.c., orally 30 min prior", "protocol": "The compound prepared in Example 3 was tested for inhibition of apomorphine induced climbing behaviour in the mouse. This is indicative of dopamine receptor blockade in the central nervous system.\nThe test is based on that described by Protais, P., Constantin, J. and Schwartz, J. C. (1976), Psychopharmacology, 50, 1-6.\nApomorphine 1 mg/kg s.c. induces mice to climb the wall of a wire cage (inverted food hopper--11×7.5×18 cm high). Mice acclimatised in their home cages in groups of 5 are placed under the hoppers immediately after the injection of apomorphine 1 mg/kg s.c. At 10,20 and 30 minutes after injection climbing behaviour is scored. The mice are observed for 30 seconds and scored according to the position they spend the majority of time in, score 0--four paws on floor of cage; score 1--fore paws only on walls; score 2--all paws on wall of cage. The scores at all 3 times and for each mouse are summed and mice drug treated orally 30 min. prior to apomorphine compared to mice receiving apomorphine only. A saline only treated group is also included and any score, generally 5% of maximum taken into account."}, "vomiting response": {"test_system": "vomiting response", "assay": "Anti-emetic Activity in the Dog (apomorphine HCl vomiting response)", "conditions": "Canis lupus familiaris, 0.5 h; s.c., 30 minutes prior to apomorphine HCl 0.1 mg/kg subcutaneously; read-out: dose that totally inhibited the vomiting response", "protocol": "Compounds were administered subcutaneously 30 minutes, or per os 2 hr, prior to administration of a standard dose of apomorphine HCl (0.1 mg/kg subcutaneously) and the vomiting response compared to that obtained when the same animals were dosed with apomorphine HCl and vehicle only."}}}
{"molecule": "NC1CCc2cc(O)c(O)cc2C1", "note": "(stereo not drawn) [6,7-ADTN, reference compound]", "values": [{"measurement": "basal gastric motor activity", "setting": "gastric motility; 6,7-ADTN 1 mg/kg s.c.", "result": "reduced basal gastric motor activity"}]}
{"molecule": "COc1ccc(NC(=O)[C@@H]2C[C@H]3CC[C@@H](C2)N3Cc2ccccc2)c(OC)c1", "note": "[Compound 20, 3-methoxy-4-[8'-benzyl-8'-azabicyclo[3.2.1]octane-3β'-carboxamido]anisole]", "values": [{"measurement": "Activity % Inhibition", "setting": "dopamine receptor; compound dose 10 mg/kg", "result": 100, "unit": "%"}]}
{"molecule": "COc1ccc(OC)c(NC(=O)[C@@H]2C[C@H]3CC[C@@H](C2)N3Cc2ccccc2)c1", "note": "[Compound 21, 4-methoxy-2-(8'-benzyl-8'-azabicyclo[3.2.1]octane-3β-carboxamido)anisole]", "values": [{"measurement": "Activity % Inhibition", "setting": "dopamine receptor; compound dose 2 mg/kg", "result": 60, "unit": "%"}]}
{"molecule": "COc1ccc(S(C)(=O)=O)cc1NC(=O)[C@@H]1C[C@H]2CC[C@@H](C1)N2Cc1ccccc1", "note": "[Compound 24, 4-methylsulphonyl-2-(8'-benzyl-8'-azabicyclo[3,2,1]octane-3'β-carboxamido)anisole]", "values": [{"measurement": "reversal of the reduction of basal gastric motor activity by 6,7-ADTN", "setting": "gastric motility; compound 1 mg/kg s.c.", "result": "reversed"}, {"measurement": "ED100", "setting": "vomiting response", "result": 0.1, "unit": "mg/kg"}]}
{"molecule": "COc1ccc(S(N)(=O)=O)cc1NC(=O)[C@@H]1C[C@H]2CC[C@@H](C1)N2Cc1ccccc1", "note": "[Compound 25, 4-aminosulphonyl-2-(8'benzyl-8'-azabicyclo[3.2.1]octane-3'β-carboxamido)anisole]", "values": [{"measurement": "reversal of the reduction of basal gastric motor activity by 6,7-ADTN", "setting": "gastric motility; compound 5 mg/kg s.c.", "result": "reversed"}]}
{"molecule": "COc1cc(N)c(Cl)cc1NC(=O)[C@@H]1C[C@H]2CC[C@@H](C1)N2Cc1ccccc1", "note": "[Compound 44, 5-Amino-4-chloro-2-[8'-benzyl-8'-azabicyclo-[3.2.1]octane-3'β-carboxamido]-anisole]", "values": [{"measurement": "Activity % Inhibition", "setting": "dopamine receptor; compound dose 1 mg/kg", "result": 100, "unit": "%"}, {"measurement": "ED50", "setting": "dopamine receptor; inhibition of apomorphine induced climbing, orally 30 min prior to apomorphine 1 mg/kg s.c.", "result": 0.05, "unit": "mg/kg"}]}
{"molecule": "COc1cc(N)c(Cl)cc1NC(=O)[C@@H]1C[C@H]2CC[C@@H](C1)N2Cc1ccc(Cl)c(Cl)c1", "note": "[Compound 45, 5-amino-4-chloro-2-(8'-[3\",4\"-dichlorobenzyl]-8'-azabicyclo[3.2.1]octane-3β'-carboxamido)anisole]", "values": [{"measurement": "Activity % Inhibition", "setting": "dopamine receptor; compound dose 10 mg/kg", "result": 100, "unit": "%"}]}
{"molecule": "COc1cc(N)c(Cl)cc1NC(=O)[C@@H]1C[C@H]2CC[C@@H](C1)N2Cc1ccc(Cl)cc1", "note": "[Compound 46, 5-amino-4-chloro-2-(8'-(4\"-chlorobenzyl)-8'-azabicyclo [3.2.1]octane-3'β-carboxamido)anisole]", "values": [{"measurement": "Activity % Inhibition", "setting": "dopamine receptor; compound dose 10 mg/kg", "result": 100, "unit": "%"}]}
{"molecule": "COc1cc(N)c(Cl)cc1NC(=O)[C@@H]1C[C@H]2CC[C@@H](C1)N2Cc1ccc(C)cc1", "note": "[Compound 47, 5-amino-4-chloro-2-(8'-[4\"-methylbenzyl]-8'-azabicyclo [3.2.1]octane-3'β-carboxamido)anisole]", "values": [{"measurement": "Activity % Inhibition", "setting": "dopamine receptor; compound dose 10 mg/kg", "result": 100, "unit": "%"}]}
{"molecule": "COc1ccc(CN2[C@@H]3CC[C@H]2C[C@H](C(=O)Nc2cc(Cl)c(N)cc2OC)C3)cc1", "note": "[Compound 48, 5-amino-4-chloro-2-(8'-[4\"-methoxybenzyl]-8'-azabicyclo [3.2.1]octane-3'β-carboxamido)anisole]", "values": [{"measurement": "Activity % Inhibition", "setting": "dopamine receptor; compound dose 10 mg/kg", "result": 100, "unit": "%"}]}
{"molecule": "COc1cc(N)c(Cl)cc1NC(=O)[C@@H]1C[C@H]2CC[C@@H](C1)N2CCC(C)C", "note": "[Compound 53, 5-amino-4-chloro-2-(8'-3\"-methylbutyl-8'-azabicyclo [3.2.1]octane-3'β-carboxamido)anisole]", "values": [{"measurement": "Activity % Inhibition", "setting": "dopamine receptor; compound dose 10 mg/kg", "result": 56, "unit": "%"}]}
{"molecule": "COc1cc(N)c(Cl)cc1NC(=O)[C@@H]1C[C@H]2CC[C@@H](C1)N2CC1CCCCC1", "note": "[Compound 55, 5-amino-4-chloro-2-(8'-cyclohexylmethyl-8'-azabicyclo [3.2.1]octane-3'β-carboxamido)anisole]", "values": [{"measurement": "Activity % Inhibition", "setting": "dopamine receptor; compound dose 50 mg/kg", "result": 100, "unit": "%"}]}
{"molecule": "COc1cc(NC(C)=O)c(Cl)cc1NC(=O)[C@@H]1C[C@H]2CC[C@@H](C1)N2Cc1ccccc1", "note": "[Compound 62, 5-Acetamido-4-chloro-2-[8-benzyl-8-azabicyclo (3,2,1)acetone-3β-carboxamido]anisole]", "values": [{"measurement": "Activity % Inhibition", "setting": "dopamine receptor; compound dose 2 mg/kg", "result": 95, "unit": "%"}]}
